Test results as given in US20080254152A1, “Methods for Reducing the Effects of Stress on Skin Condition” (priority 2003, published 2008).
“Also recorded” adds a separate entry of the source.

Assays:
[1] = system: ICAM-1 expression in HUVECs; assay: ICAM-1 expression in HUVECs pre-treated 5 days with dexamethasone, then oxidatively stressed with PMA (ELISA); type: cell-based, Human; conditions: then 1 μM PMA, HUVEC
Description: An in vitro model has been developed to investigate the impact of chronic stress on the inflammatory status of endothelial cells. • a. Cells are grown in 6-well (9.5 cm^2) plates. • b. […] Tissue culture supernatant and cell pellets are harvested at timepoint T0. • d. The cells are oxidatively stressed with 1 μM Phorbol Myristate Acetate (PMA). • e. Tissue culture supernatant and cell pellets were harvested at 6, 24 and 48 hours (T6, T24 and T48, respectively) post-PMA treatment. • f. All tissue culture supernatant was assayed for Lactate Dehydrogenase (LDH), as a measure of cytotoxicity, and Interleukin-6 synthesis. • g. All cells were counted (Beckman Coulter Counter) and pelleted and cell lysate assayed for ICAM-1 expression (Intra Cellular Adhesion Molecule 1).
HUVEC cells (Human umbilical vein endothelial cells, TCS Biologicals) were cultured and passaged in EGM-2 (Endothelial growth medium, Biowhittaker) supplemented with heparin, VEGF (vascular endothelial growth factor), gentamicin sulphate, ascorbic acid, HEGF (Human endothelial growth factor), hydrocortisone, HFGF-B (Human fibroblast growth factor B), R3-IGF-1 (long R insulin-like growth factor 1) and FBS (foetal bovine serum).
Cells were routinely plated out in 6-well tissue culture dishes, at a seeding density of ˜5000 cells/cm^2 in 2 ml complete medium/well, 48 hours before starting the experiment, and incubated at 37° C. in 5% CO2.
Pre-treatment and test solutions were prepared in EGM-2 containing all supplements except hydrocortisone.
Following this, the cells were oxidatively stressed for 24 hours with 1 μM PMA (Sigma P8139).
Receptor antagonists were added to the cells during the pre-treatment period. These included the Glucocorticoid Receptor Antagonist; 2 μM Mifepristone (Sigma M8046) and two CRH receptor antagonists; 200 nM Astressin (Sigma A4933) and 200 nM α-helical CRF peptide antagonist (Sigma C2917).
Any change in cell morphology was noted before the cells were harvested. Both the tissue culture supernatant and the endothelial cells were harvested after the five-day pre-treatment period (T0), at 6 hours and 24 hours after addition of PMA (T6 and T24) and at 24 hours after removal of the PMA (T48). All tissue culture supernatants were stored at −20° C.
All cell pellets were lysed on ice for 30 minutes in 1 ml cell lysis buffer per 2.5×10^6 cells. The lysis buffer contained 1% NP-40, 0.1% sodium deoxycholate, 0.1% SDS, 6 mM sodium chloride and 0.05M Tris at pH 7.6. Protease inhibitor cocktail ([…]; Sigma P8340) was added prior to use at a level of 10 μl per ml of lysis buffer. The partially lysed cell pellets were completely homogenised with a pellet pestle and unwanted cell debris removed by centrifugation for 20 minutes at 20,000 g at 4° C. The clarified cell lysate was frozen at −80° C. until needed.
The total protein concentration of each cell lysate was measured using the Pierce BCA protein assay kit. A set of eight standard solutions ranging from 0 to 1200 μg/ml protein was prepared from the supplied 2 mg/ml BSA stock solution. 10 μl of standard or cell lysate was added to duplicate wells of a flat-bottomed, 96-well microtitre plate. The reagent solution was prepared according to the kit instructions from 50 parts reagent A and 1 part reagent B. 200 μl of the final reagent was added to each well of the microtitre plate. The plate was mixed, covered and incubated at 37° C. for 30 minutes and absorbance read at 562 nm.
ICAM-1 protein in each cell lysate was estimated using the Human sICAM-1 DuoSet ELISA kit (R&D Systems DY720) according to the manufacturer's instructions.
The capture antibody was diluted to a final concentration of 4 μg/ml in PBS and 100 μl was used to coat each well of a 96-well microtitre plate overnight at room temperature. The plate was then washed three times with wash buffer (0.05% Tween 20 in PBS).

[2] = system: MMP-1 expression in human neonatal dermal fibroblast cells; assay: Active MMP-1 in neonatal-derived human dermal fibroblasts after chronic dexamethasone and PMA; type: cell-based; conditions: agent added during dexamethasone pre-treatment; dermal fibroblasts
Description: (§1) In this study, to understand better the effect of chronic stress on dermal matrix remodelling in the skin, we have therefore measured changes in markers of dermal matrix degradation (MMP-1) and dermal matrix synthesis (Procollagen I) in chronically glucocorticoid-treated primary human dermal fibroblasts, following acute stress with PMA. The experimental approach is similar to that described in example 1 except that the cells tested are dermal fibroblasts and cells are assayed for expression of procollagen-1, MMP-1 and MMP-9 expression.
(§2) Primary human dermal fibroblast cells were cultured and passaged in DMEM (Gibco) supplemented with 10% FBS (foetal bovine serum). Cells were routinely plated out in 6-well tissue culture dishes, at a seeding density of ˜5000 cells/cm^2 in 2 ml complete medium/well for 24 hours, and incubated at 37° C. in 5% CO2. Media was removed and cells grown in DMEM & 1% FBS, 24 hours prior to treatments.
(§3) Pre-treatment and test solutions were prepared in DMEM containing low serum (1% FBS). […] Following this, the cells were oxidatively stressed for 24 hours with 1 μM PMA (Sigma P8139).
MMP-1 and MMP-9 protein in each cell supernatant was estimated using the Human active MMP-1 and MMP-9 Fluorokine enzyme kit (R&D Systems F1M00 and F9M00, respectively), according to the manufacturer's instructions.
Six MMP-1 and MMP-9 standards were prepared in calibrator diluent at concentrations ranging from 0.39 to 12.5 ng/ml and 0.25 to 16 ng/ml, respectively. 100 μl of assay diluent and 150 μl of tissue culture supernatant or standard was added to duplicate wells. The plate was incubated at room temperature for 3 hours on a horizontal orbital plate shaker before being washed four times with wash buffer. 200 μl of APMA was added to each well and the plate incubated at 37° C. for 2 hours in a humidified environment and protected from the light. The plate was washed as before. Each well received 200 μl of substrate solution and the plate incubated at 37° C. for 17-20 hours in a humidified environment and protected from the light. The relative fluorescence unit (RFU) of each well was determined using a fluorescence plate set with 1×20 mS integration time, plate speed ˜6; excitation wavelength set to 320 nm and emission wavelength set to 405 nm.
A standard curve was plotted of mean RFU versus MMP-1 and MMP-9 concentration (respectively), and the line of best fit calculated by regression analysis. The unknown concentration of either active MMP-1 or MMP-9 protein in all of the samples was estimated from this.
(§4) The same methods were used as described in Example 2, except that various test agents were added to the cells during the pre-treatment period.

[3] = system: procollagen-1 expression in human neonatal dermal fibroblast cells; assay: Procollagen I C-peptide EIA in neonatal-derived human dermal fibroblasts after chronic dexamethasone and PMA; type: cell-based; conditions: agent added during dexamethasone pre-treatment; dermal fibroblasts
Description: as §1, §2, §3
Collagen I is synthesised as a precursor molecule, Procollagen I. The amount of free propeptide therefore, reflects stoichiometrically, the amount of collagen I synthesised. The Procollagen Type I C-peptide Enzyme Immunoassay (EIA) kit allows for the quantitative determination of Procollagen Type I C-peptide (PIP).
Eight PIP standards were prepared in sample diluent at concentrations ranging from 0 to 640 ng/ml. 100 μl of antibody-Peroxidase conjugate solution and 20 μl of cell lysate (1 μg protein) or standard was added to duplicate wells. The plate was sealed and incubated at 37° C. for 3 hours before being washed four times with 400 μl of PBS. Each well then received 100 μl of substrate solution and the plate incubated at room temperature, on the benchtop, for 15 minutes. After this period, 100 μl stop solution was added to each well and absorbance measured at 450 nm with a plate reader.
A standard curve was plotted of mean absorbance versus PIP concentration and the line of best fit calculated by regression analysis. The unknown concentration of PIP in all the samples was estimated from this.
as §4

[4] = agent 1 μM during 5-day 1 μM dexamethasone pre-treatment
[5] = agent 10 μM during 5-day 1 μM dexamethasone pre-treatment

In the case of Mevinolin, the “Effective? (suppression of ICAM-1 synthesis in chronically stressed endothelial cells)” value (from here on “Effective?”) [1, 4] is reported as “Yes”.
For `C=C1[C@@H](O)[C@@H]2O[C@]3(CC[C@H](/C=C/[C@@H](C)[C@@H]4CC(C)=C[C@@]5(O[C@H](C[C@@](C)(O)C(=O)O)CC[C@H]5O)O4)O3)CC[C@H]2O[C@@H]1[C@@H](O)C[C@H](C)[C@H]1O[C@@]2(CCCCO2)CC[C@H]1C` [Okadaic acid], the “Effective?” value ([1]; agent 1 nM during 5-day 1 μM dexamethasone pre-treatment) was “Yes”.
For `O=C(O)/C=C/c1ccc(O)c(O)c1` [Caffeic acid], the “Effective?” value ([1]; agent 150 μM during 5-day 1 μM dexamethasone pre-treatment) was “No”.
For Alliin, the “Effective?” value [1, 5] was “No”.
In the case of `CC(C)=CCC[C@](C)(O[C@@H]1O[C@H](CO[C@@H]2O[C@H](CO)[C@@H](O)[C@H](O)[C@H]2O)[C@@H](O)[C@H](O)[C@H]1O)[C@H]1CC[C@]2(C)[C@@H]1[C@H](O)C[C@@H]1[C@@]3(C)CC[C@H](O[C@@H]4O[C@H](CO)[C@@H](O)[C@H](O)[C@H]4O[C@@H]4O[C@H](CO)[C@@H](O)[C@H](O)[C@H]4O)C(C)(C)[C@@H]3CC[C@]12C` [Ginsenoside Rb1], the “Effective?” value [1, 4] is reported as “Yes”, the “Effect on glucocorticoid effects on levels of MMP-1 expression following PMA-induced acute stress” value [2] is reported as “inhibited the effects of glucocorticoid” and the “Effect on glucocorticoid effects on levels of procollagen expression following PMA-induced acute stress” value [3] is reported as “inhibited the effects of glucocorticoid”.
`Cc1cccc(Nc2cc(Cl)nc(SCC(=O)O)n2)c1C` [WY14643] was tested, and the “Effective?” value [1, 5] was “No”.
For `CCNC(=O)CC[C@H](N)C(=O)O` [Theanine], the “Effective?” value [1, 5] was “No”.
With `C/C(=C\CC/C(C)=C/CCC1[C@](C)(O)CC[C@H]2C(C)(C)C(=O)CC[C@]12C)CC/C=C(\C)C(=O)O` (stereo partly shown) [Commipheric acid] the “Effective?” value ([1]; agent 10 μg/ml during 5-day 1 μM dexamethasone pre-treatment) was “Yes”, the “Effect on glucocorticoid effects on levels of MMP-1 expression following PMA-induced acute stress” value [2] was “inhibited the effects of glucocorticoid” and the “Effect on glucocorticoid effects on levels of procollagen expression following PMA-induced acute stress” value [3] was “inhibited the effects of glucocorticoid”.
`COc1cc(/C=C/C(=O)CC(=O)/C=C/c2ccc(O)c(OC)c2)ccc1O` [Curcumin] was tested, and the “Effective?” value [1, 4] was “Yes”, the “Effect on glucocorticoid effects on levels of MMP-1 expression following PMA-induced acute stress” value [2] was “inhibited the effects of glucocorticoid” and the “Effect on glucocorticoid effects on levels of procollagen expression following PMA-induced acute stress” value [3] was “inhibited the effects of glucocorticoid”.
`CC(C)=CCC[C@](C)(O[C@@H]1O[C@H](CO[C@@H]2O[C@@H](CO)[C@H](O)[C@H]2O)[C@@H](O)[C@H](O)[C@H]1O)[C@H]1CC[C@]2(C)[C@@H]1[C@H](O)C[C@@H]1[C@@]3(C)CC[C@H](O[C@@H]4O[C@H](CO)[C@@H](O)[C@H](O)[C@H]4O[C@@H]4O[C@H](CO)[C@@H](O)[C@H](O)[C@H]4O)C(C)(C)[C@@H]3CC[C@]12C` [Ginsenoside Rc] was tested, and the “Effective?” value [1, 4] was “Yes”, the “Effect on glucocorticoid effects on levels of MMP-1 expression following PMA-induced acute stress” value [2] was “inhibited the effects of glucocorticoid” and the “Effect on glucocorticoid effects on levels of procollagen expression following PMA-induced acute stress” value [3] was “inhibited the effects of glucocorticoid”.
`CC#C[C@]1(O)CC[C@H]2[C@@H]3CCC4=CC(=O)CCC4=C3[C@@H](c3ccc(N(C)C)cc3)C[C@@]21C` [Mifepristone] was tested, and the “ICAM-1 expression compared with cells without chronic GC treatment” value ([1]; 2 μM mifepristone during chronic 1 μM glucocorticoid pre-treatment) was “below that seen in cells that had not received chronic GC treatment” and the “Effect on oxidative stress-induced increase in ICAM-1 expression” value ([1]; 2 μM mifepristone during chronic 1 μM glucocorticoid pre-treatment, FIG. 3) was “significant reduction; also recorded: completely blocked”.
For `CC(C)CC[C@@H](O)[C@@H](C)[C@H]1CC[C@H]2[C@@H]3CC=C4C[C@@H](O)CC[C@]4(C)[C@H]3CC[C@]12C` [22-OH-cholesterol, 22-(R)-Hydroxycholesterol], the “Effective?” value [1, 4] was “Yes”.
In the case of `Oc1ccc(C=Cc2cc(O)cc(O)c2)cc1` [Resveratrol], the “Effective?” value [1, 5] is reported as “No”.
